In data set [1] the test system is Tobacco Tsukuba 1 (flue-cured cultivar) axillary buds. Description: Tobacco axillary bud growth inhibition test, flue-cured cultivar. In kind it is in vivo, Nicotiana tabacum. Here is the method: (§1) Tobacco seedlings of Tsukuba 1 (flue-cured cultivar) and Michinoku 1 (burley cultivar) were transplanted to 1/5000a Wagner pots filled with Kureha garden nursery soil. The plants were grown in a glasshouse, and the floral axis parts were removed at the time of single-flower bloom of tobacco (top pruning).
(§2) The formulations of the inhibitors for tobacco axillary bud growth obtained in Formulation Examples 1 to 10 above were each diluted with water to predetermined concentrations, and 20 ml of the water-diluted solutions of the respective inhibitors were separately sprayed using a contact-type axillary bud inhibitor spraying instrument equipped with a spot exhaust nozzle (Examples 1 to 11 and 12 to 22). In addition, butralin (trade name: Blue Ribbon) (Comparative Examples 1 and 3) and decyl alcohol (trade name: Contact) (Comparative Examples 2 and 4) were used for tests as comparative examples in the same manner as above. In the cases of both the flue-cured cultivar and burley cultivar, one plant was planted per pot, and the tests were carried out in duplicate.
(§3) For the respective cases, states of inhibition of axillary bud growth 28 days after the spraying were investigated together with untreated groups sprayed with no inhibitor, and axillary bud growth inhibition ratios were calculated by the following equation. Axillary bud growth inhibition ratio=(fresh weight of axillary buds per plant of untreated group−fresh weight of axillary buds per plant of treated group)÷(fresh weight of axillary buds per plant of untreated group)×100 [Math. 1]
(§4) The formulation of Formulation Example 1 (cafenstrole), Formulation Example 2 (thenylchlor) or Formulation Example 10 (propisochlor) above was diluted with water to predetermined concentrations and mixed with decyl alcohol (manufactured by Wako Pure Chemical Industries, Ltd.), 2-ethylhexanol (manufactured by Wako Pure Chemical Industries, Ltd.) or geraniol (manufactured by Wako Pure Chemical Industries, Ltd.) at predetermined concentrations, and the resultant was adjusted and used for tests (Examples 23 to 31 and 32 to 40). In addition, as comparative examples, the formulation of Formulation Example 1, […], or Formulation Example 10 diluted with water to predetermined concentrations (Comparative Examples 5 to 7 and 11 to 13) and decyl alcohol, 2-ethylhexanol or geraniol diluted with water to a predetermined concentration were used for tests (Comparative Examples 8 to 10 and 14 to 16).
(§5) The respective inhibitors were sprayed in the same manner as in Test Example 1, and states of inhibition of axillary bud growth 28 days after the spraying were investigated together with untreated groups sprayed with no inhibitor. Then, axillary bud growth inhibition ratios were calculated.
(§6) The formulation of Formulation Example 11 (cafenstrole), Formulation Example 12 (thenylchlor) or Formulation Example 13 (chlorthal-dimethyl) above was diluted with water to predetermined concentrations, and the resultant was mixed, adjusted and used for tests (Examples 41 to 58 and 59 to 76). In addition, as comparative examples, the formulation of Formulation Example 11, Formulation Example 12 or Formulation Example 13 diluted with water to predetermined concentrations (Comparative Examples 21 to 29 and 34 to 42), butralin (trade name: Blue Ribbon) (Comparative Examples 17, 18, 30, and 31) and decyl alcohol (trade name: Contact) (Comparative Examples 19, 20, 32, and 33) were used for tests in the same manner as above.

In data set [2] the test system is Tobacco Michinoku 1 (burley cultivar) leaves (first to fourth leaves from the top). Kind of data set: Harmful effect of inhibitor on tobacco leaves, burley cultivar. In kind it is in vivo, Nicotiana tabacum. Here is the method:
as §1, §2
(§7) Further, the presence or absence of the harmful effect of each inhibitor was evaluated in one of the following four categories depending on the degrees of growth inhibition, gangrene, change in color, deformation and the like of leaves (first to fourth leaves from the top).
(§8) Large: A severely harmful effect was observed.
(§9) Middle: A clearly harmful effect was observed.
(§10) Small: A slightly harmful effect was observed.
(§11) Absent: No harmful effect was observed.
as §6, §5

Data set [3] concerns Tobacco Michinoku 1 (burley cultivar) axillary buds. Kind of data set: Tobacco axillary bud growth inhibition test, burley cultivar. In kind it is in vivo. The following applies: Nicotiana tabacum, 672 h, 28 days after the spraying; for pest or weed control at 0.1 %: concentration of active ingredient 0.1%. Here is the method: as §1, §2, §3, §4, §5, §6
The subject of data set [4] is Tobacco Tsukuba 1 (flue-cured cultivar) leaves (first to fourth leaves from the top). Kind of data set: Harmful effect of inhibitor on tobacco leaves, flue-cured cultivar. It counts as in vivo, Nicotiana tabacum. As for the experimental part:
as §1, §2, §7, §8, §9, §10, §11, §6, §5

Where [5] appears, read: Nicotiana tabacum, 672 h, Table 1, flue-cured cultivar, concentration of active ingredient 0.1%, 28 days after the spraying, read-out: Axillary bud growth inhibition ratio.
The mark [6] stands for this setting: Table 2, burley cultivar, read-out: Axillary bud growth inhibition ratio.
[7] abbreviates: Nicotiana tabacum, 672 h, read-out: Axillary bud growth inhibition ratio.
The mark [8] stands for this setting: Table 2, burley cultivar, concentration of active ingredient 0.1%.
The mark [9] stands for this setting: Table 1, flue-cured cultivar, concentration of active ingredient 0.1%.

Like-named read-outs stand apart in the source and are kept apart here.

Here are results for three compounds from patent US8865624B2, “Inhibitor for tobacco axillary bud growth and method for inhibiting tobacco axillary bud growth” (SDS Biotech K.K., priority 2010, dated 2014).

For the compound `CCc1cccc(C)c1N(COC(C)C)C(=O)CCl` [Propisochlor, propisochlor], the pest or weed control at 0.1 % was determined as 86% in data set [1] (setting [5]); 84% in data set [3] (setting [6]); 83% in data set [3] (Table 4, burley cultivar, read-out: Axillary bud growth inhibition ratio). Further, the pest or weed control at 0.2 % in data set [1] (Nicotiana tabacum, 672 h, Table 1, flue-cured cultivar, concentration of active ingredient 0.2%, 28 days after the spraying, read-out: Axillary bud growth inhibition ratio) amounted to 98%; in data set [3] (Table 2, burley cultivar, concentration of active ingredient 0.2%, read-out: Axillary bud growth inhibition ratio), 95%. In data set [1] (Table 3, flue-cured cultivar, concentration of active ingredient 0.1%, 28 days after the spraying), the “Axillary bud growth inhibition ratio” value was determined as 86%. Further, the “Harmful effect of inhibitor” value in data set [2] (in vivo) and in data set [4] (in vivo) was “Absent” in each case.

As to `CCN(CC)C(=O)n1cnc(S(=O)(=O)c2c(C)cc(C)cc2C)n1` [Cafenstrole], the pest or weed control at 0.002 % was found to be 17% in data set [1] (setting [7]) and 15% in data set [3] (read-out: Axillary bud growth inhibition ratio, Table 6, burley cultivar, concentration of active ingredient 0.002%). Besides, the pest or weed control at 0.005 % in data set [1] (setting [7]) came to 20%; in data set [3] (read-out: Axillary bud growth inhibition ratio, Table 6, burley cultivar, concentration of active ingredient 0.005%), 19%. Also, the pest or weed control at 0.01 % is 23% in data set [1] (setting [7]) and 25% in data set [3] (read-out: Axillary bud growth inhibition ratio, Table 6, burley cultivar, concentration of active ingredient 0.01%). The pest or weed control at 0.05 % worked out at 76% in data set [1] (setting [7]) and 72% in data set [3] (read-out: Axillary bud growth inhibition ratio, Table 4, burley cultivar, concentration of active ingredient 0.05%). The pest or weed control at 0.1 % in data set [1] (setting [7]) is 100%; in data set [3] (read-out: Axillary bud growth inhibition ratio, Table 2, burley cultivar) it was 99%. The “Harmful effect of inhibitor” value is “Absent” in data set [2] (setting [8]); “Absent” in data set [2] (Table 6, burley cultivar, concentration of active ingredient 0.002%); “Absent” in data set [2] (Table 6, burley cultivar, concentration of active ingredient 0.005%); “Absent” in data set [2] (Table 6, burley cultivar, concentration of active ingredient 0.01%); “Absent” in data set [4] (setting [9]); “Absent” in data set [4] (Table 5, flue-cured cultivar, concentration of active ingredient 0.002%). The “Harmful effect of inhibitor” value in data set [4] (Table 5, flue-cured cultivar, concentration of active ingredient 0.005%) is “Absent”; in data set [4] (Table 5, flue-cured cultivar, concentration of active ingredient 0.01%) it was “Absent”.

For the compound `CCCOCCN(C(=O)CCl)c1c(CC)cccc1CC` [Pretilachlor], the pest or weed control at 0.1 % in data set [1] (setting [5]) was determined as 93%; in data set [3] (setting [6]), 92%. Also, the “Harmful effect of inhibitor” value in data set [2] (setting [8]) and in data set [4] (setting [9]) was “Absent” each time.
